Among the data in patent US20190292174A1, “MICROBIOCIDAL OXADIAZOLE DERIVATIVES” (SYNGENTA PARTICIPATIONS AG, priority 2016, published 2019) are pest or weed control, inhibition of growth and melting point values, retold here.

Values joined by “and” are separate entries in the source; they are usually repeats but may differ in a detail not shown here. Identical values can stand only once. A value given as a limit tells only on which side of the number the result lay.

The test system of data set [1] is Puccinia recondita f. sp. tritici. The data set can be described thus: Puccinia recondita f. sp. tritici / wheat / leaf disc preventative (brown rust). The settings on record: foliar, wheat leaf segments cv. Kanzler, preventative (inoculated 1 day after application), compared to untreated control. In kind it is in vivo. As to the method: Leaf disks or leaf segments of various plant species are cut from plants grown in a greenhouse. The cut leaf disks or segments are placed in multiwell plates (24-well format) onto water agar. The leaf disks are sprayed with a test solution before (preventative) or after (curative) inoculation. Compounds to be tested are prepared as DMSO solutions (max. 10 mg/ml) which are diluted to the appropriate concentration with 0.025% Tween20 just before spraying. The inoculated leaf disks or segments are incubated under defined conditions (temperature, relative humidity, light, etc.) according to the respective test system. A single evaluation of disease level is carried out 3 to 14 days after inoculation, depending on the pathosystem. Percent disease control relative to the untreated check leaf disks or segments is then calculated. Wheat leaf segments cv. Kanzler are placed on agar in multiwell plates (24-well format) and sprayed with the formulated test compound diluted in water. The leaf disks are inoculated with a spore suspension of the fungus 1 day after application. The inoculated leaf segments are incubated at 19° C. and 75% rh under a light regime of 12 h light/12 h darkness in a climate cabinet and the activity of a compound is assessed as percent disease control compared to untreated when an appropriate level of disease damage appears in untreated check leaf segments (7-9 days after application).

The test system is the same in data set [2]. The data set can be described thus: Puccinia recondita f. sp. tritici / wheat / leaf disc curative (brown rust). In kind it is in vivo. The settings on record: foliar, 24 h, wheat leaf segments cv. Kanzler, curative (applied 1 day after inoculation), compared to untreated control, read-out: control of Puccinia recondita f. sp. tritic. As to the method: Leaf disks or leaf segments of various plant species are cut from plants grown in a greenhouse. The cut leaf disks or segments are placed in multiwell plates (24-well format) onto water agar. The leaf disks are sprayed with a test solution before (preventative) or after (curative) inoculation. Compounds to be tested are prepared as DMSO solutions (max. 10 mg/ml) which are diluted to the appropriate concentration with 0.025% Tween20 just before spraying. The inoculated leaf disks or segments are incubated under defined conditions (temperature, relative humidity, light, etc.) according to the respective test system. A single evaluation of disease level is carried out 3 to 14 days after inoculation, depending on the pathosystem. Percent disease control relative to the untreated check leaf disks or segments is then calculated. Wheat leaf segments cv. Kanzler are placed on agar in multiwell plates (24-well format). The leaf segments are inoculated with a spore suspension of the fungus. Plates are stored in darkness at 19° C., and 75% rh. The formulated test compound diluted in water is applied 1 day after inoculation. The leaf segments are incubated at 19° C., and 75% rh under a light regime of 12 h light/12 h darkness in a climate cabinet and the activity of a compound is assessed as percent disease control compared to untreated when an appropriate level of disease damage appears in untreated check leaf segments (6-8 days after application).

Data set [3] has as its system Phakopsora pachyrhizi. As to the kind of experiment: Phakopsora pachyrhizi / soybean / leaf disc preventative (Asian soybean rust). In kind it is in vivo. The settings on record: foliar, soybean leaf disks, compared to untreated control. As to the method: Leaf disks or leaf segments of various plant species are cut from plants grown in a greenhouse. The cut leaf disks or segments are placed in multiwell plates (24-well format) onto water agar. The leaf disks are sprayed with a test solution before (preventative) or after (curative) inoculation. Compounds to be tested are prepared as DMSO solutions (max. 10 mg/ml) which are diluted to the appropriate concentration with 0.025% Tween20 just before spraying. The inoculated leaf disks or segments are incubated under defined conditions (temperature, relative humidity, light, etc.) according to the respective test system. A single evaluation of disease level is carried out 3 to 14 days after inoculation, depending on the pathosystem. Percent disease control relative to the untreated check leaf disks or segments is then calculated. Soybean leaf disks are placed on water agar in multiwell plates (24-well format) and sprayed with the formulated test compound diluted in water. One day after application leaf discs are inoculated by spraying a spore suspension on the lower leaf surface. After an incubation period in a climate cabinet of 24-36 hours in darkness at 20° C., and 75% rh leaf disc are kept at 20° C. with 12 h light/day and 75% rh. The activity of a compound is assessed as percent disease control compared to untreated when an appropriate level of disease damage appears in untreated check leaf disks (12-14 days after application).

For data set [4], the system named is Glomerella lagenarium (Colletotrichum lagenarium). The data set can be described thus: Glomerella lagenarium (Colletotrichum lagenarium) liquid culture / cucumber / preventative (anthracnose). In kind it is cell-based. As to conditions: Colletotrichum orbiculare, liquid culture (PDB), growth inhibition measured photometrically 3-4 days after application, compared to untreated control. As to the method: […] fragments or conidia suspensions of a fungus prepared either freshly from liquid cultures of the fungus or from cryogenic storage, are directly mixed into nutrient broth. DMSO solutions of the test compound (max. 10 mg/ml) are diluted with 0.025% Tween20 by a factor of 50 and 10 μl of this solution is pipetted into a microtiter plate (96-well format). The nutrient broth containing the fungal spores/mycelia fragments is then added to give an end concentration of the tested compound. The test plates are incubated in the dark at 24° C., and 96% relative humidity. The inhibition of fungal growth is determined photometrically after 2 to 7 days, depending on the pathosystem, and percent antifungal activity relative to the untreated check is calculated. Conidia of the fungus from cryogenic storage are directly mixed into nutrient broth (PDB potato dextrose broth). Alter placing a (DMSO) solution of test compound into a microtiter plate (96-well format), the nutrient broth containing the fungal spores is added. The test plates are incubated at 24° C., and the inhibition of growth is measured photometrically 3-4 days after application.

As usually defined, the inhibition of growth is the relative decrease from the control value, in per cent. A low value points to a weak effect. One may read the melting point as the temperature, or range, at which the solid turns liquid.

Take `O=C(NNCCOC(F)F)c1ccc(-c2noc(C(F)(F)F)n2)cc1` [Compound 1.22, N′-[2-(difluoromethoxy)ethyl]-4-[5-(trifluoromethyl)-1,2,4-oxadiazol-3-yl]benzohydrazide]: the pest or weed control at 200 ppm in data set [1], in data set [2] and in data set [3] was at least 80% throughout. Further, the inhibition of growth at 20 ppm in data set [4] was at least 80%.

`O=C(NN1CCCCC1=O)c1ccc(-c2noc(C(F)(F)F)n2)cc1F` [Compound 1.23, 2-fluoro-N-(2-oxo-1-piperidyl)-4-[5-(trifluoromethyl)-1,2,4-oxadiazol-3-yl]benzamide] had a melting point of 120 to 136 °C. For the same compound, the pest or weed control at 200 ppm in data set [1] was at least 80%. The pest or weed control at 200 ppm in data set [2] was at least 80%. This compound returned a pest or weed control at 200 ppm in data set [3] of at least 80%. The compound also came in with an inhibition of growth at 20 ppm in data set [4] of at least 80%.

Regarding `CN(C)N(CC(=O)NC(C)(C)C)C(=O)c1ccc(-c2noc(C(F)(F)F)n2)cc1` [Compound 1.1, N-tert-butyl-2-[dimethylamino-[4-[5-(trifluoromethyl)-1,2,4-oxadiazol-3-yl]benzoyl]amino]-acetamide], the pest or weed control at 200 ppm in data set [1], in data set [2] and in data set [3] was at least 80% in each case. Moreover, the inhibition of growth at 20 ppm in data set [4] is at least 80%.

In turn, `CN(C)NC(=O)Cc1ccc(-c2noc(C(F)(F)F)n2)cc1F` [Compound 1.26, 2-[2-fluoro-4-[5-(trifluoromethyl)-1,2,4-oxadiazol-3-yl]phenyl]-N′,N′-dimethyl-acetohydrazide] returned a melting point of 156 to 158 °C. Besides, in data set [1], the pest or weed control at 200 ppm was at least 80%. For the same compound, the pest or weed control at 200 ppm in data set [2] is at least 80%. In data set [3], this compound yielded a pest or weed control at 200 ppm of at least 80%. This compound also registered an inhibition of growth at 20 ppm in data set [4] of at least 80%.

`O=C(NN1CCOC1=O)c1ccc(-c2noc(C(F)(F)F)n2)cc1` [Compound 1.19, N-(2-oxooxazolidin-3-yl)-4-[5-(trifluoromethyl)-1,2,4-oxadiazol-3-yl]benzamide] came in with a melting point of 196 to 200 °C. The same compound registered a pest or weed control at 200 ppm in data set [1] of at least 80%. Further, the pest or weed control at 200 ppm in data set [2] is at least 80%. In data set [3], this compound gave a pest or weed control at 200 ppm of at least 80%. Also, the inhibition of growth at 20 ppm in data set [4] was at least 80%.

The compound `O=C(Cc1ccc(-c2noc(C(F)(F)F)n2)cc1)NN1CCOCC1` [Compound 1.17, N-morpholino-2-[4-[5-(trifluoromethyl)-1,2,4-oxadiazol-3-yl]phenyl]acetamide] registered a melting point of 182 to 188 °C. This compound also came in with a pest or weed control at 200 ppm in data set [1] of at least 80%. Also, in data set [2], the pest or weed control at 200 ppm was at least 80%. This compound registered a pest or weed control at 200 ppm in data set [3] of at least 80%.

Take `O=C(NN1CCOC1=O)c1ccc(-c2noc(C(F)(F)F)n2)cc1F` [Compound 1.3, 2-fluoro-N-(2-oxooxazolidin-3-yl)-4-[5-(trifluoromethyl)-1,2,4-oxadiazol-3-yl]benzamide]: the melting point was 186 to 189 °C and 186.8 to 188.8 °C. Moreover, the pest or weed control at 200 ppm in data set [1] was at least 80%. Further, in data set [2], the pest or weed control at 200 ppm was at least 80%. This compound registered a pest or weed control at 200 ppm in data set [3] of at least 80%. The same compound yielded an inhibition of growth at 20 ppm in data set [4] of at least 80%.

Take `O=C(NN1CCCCC1=O)c1ccc(-c2noc(C(F)(F)F)n2)c(F)c1` [Compound 1.24, 3-fluoro-N-(2-oxo-1-piperidyl)-4-[5-(trifluoromethyl)-1,2,4-oxadiazol-3-yl]benzamide]: the melting point was in the range of 180 to 200 °C. In data set [1], this compound yielded a pest or weed control at 200 ppm of at least 80%. Also, the pest or weed control at 200 ppm in data set [2] is at least 80%. The compound further yielded a pest or weed control at 200 ppm in data set [3] of at least 80%. For the same compound, the inhibition of growth at 20 ppm in data set [4] was at least 80%.

For `CC(C)OCC1CN(NC(=O)c2ccc(-c3noc(C(F)(F)F)n3)cc2)C(=O)O1` (centres unmarked) [Compound 1.20, N-[5-(isopropoxymethyl)-2-oxo-oxazolidin-3-yl]-4-[5-(trifluoromethyl)-1,2,4-oxadiazol-3-yl]benzamide], the melting point was 192 to 197 °C. Further, in data set [3], the pest or weed control at 200 ppm was at least 80%. The inhibition of growth at 20 ppm in data set [4] was at least 80%.

Compound `O=C(Cc1ccc(-c2noc(C(F)(F)F)n2)cc1)NN1CCCCC1=O` [Compound 1.14, N-(2-oxo-1-piperidyl)-2-[4-[5-(trifluoromethyl)-1,2,4-oxadiazol-3-yl]phenyl]acetamide] registered a melting point of 165 to 170 °C. In data set [1], this compound showed a pest or weed control at 200 ppm of at least 80%. In addition, the pest or weed control at 200 ppm in data set [2] was at least 80%. The pest or weed control at 200 ppm in data set [3] was at least 80%.

Compound `CN(C)NC(=O)Cc1ccc(-c2noc(C(F)(F)F)n2)cc1` [Compound 1.27, N′,N′-dimethyl-2-[4-[5-(trifluoromethyl)-1,2,4-oxadiazol-3-yl]phenyl]-acetohydrazide] registered a melting point of 180 to 182 °C. For the same compound, the pest or weed control at 200 ppm in data set [1] is at least 80%. Also, in data set [2], the pest or weed control at 200 ppm was at least 80%. In data set [3], this compound registered a pest or weed control at 200 ppm of at least 80%. Also, the inhibition of growth at 20 ppm in data set [4] is at least 80%.

Regarding `O=C(NN1CCOCC1)c1ccc(-c2noc(C(F)(F)F)n2)cc1F` [Compound 1.15, 2-fluoro-N-morpholino-4-[5-(trifluoromethyl)-1,2,4-oxadiazol-3-yl]benzamide], the melting point lay within 140 to 160 °C. For the same compound, the pest or weed control at 200 ppm in data set [1] was at least 80%. Besides, the pest or weed control at 200 ppm in data set [2] is at least 80%. This compound displayed a pest or weed control at 200 ppm in data set [3] of at least 80%. The inhibition of growth at 20 ppm in data set [4] is at least 80%.

In the case of `O=C(Cc1ccc(-c2noc(C(F)(F)F)n2)cc1)NN1CCOC1=O` [Compound 1.21, N-(2-oxooxazolidin-3-yl)-2-[4-[5-(trifluoromethyl)-1,2,4-oxadiazol-3-yl]phenyl]acetamide], the melting point fell in the range of 184 to 187 °C. For the same compound, the pest or weed control at 200 ppm in data set [1] is at least 80%. Besides, the pest or weed control at 200 ppm in data set [2] is at least 80%. In data set [3], this compound yielded a pest or weed control at 200 ppm of at least 80%. In data set [4], this compound came in with an inhibition of growth at 20 ppm of at least 80%.
